Assay results as given in patent US20150065717A1, “NIPECOTIC ACID DERIVATIVE AND USE THEREOF FOR MEDICAL PURPOSES” (Toray Industries, Inc., priority 2012, published 2015).

Key:
[1] = test system: rat monocrotaline-administered pulmonary hypertension model; experiment: Rat monocrotaline-administered pulmonary hypertension model, administration from day of monocrotaline; type: in vivo, rat (Wistar strain); details: for heart rate vs pulmonary hypertension control group / systemic systolic pressure vs pulmonary hypertension control group: Dunnett's test; for right ventricular systolic pressure vs pulmonary hypertension control group / right ventricular weight ratio vs pulmonary hypertension control group: Dunnett's test p<0.05
Method: Example Compound 1 or 2 was administered to a rat monocrotaline-administered pulmonary hypertension model (Journal of Pharmacological Sciences, 2009, vol. 111, p. 235-243), and the therapeutic effect of the nipecotic acid derivative (I) or a pharmaceutically acceptable salt thereof on pulmonary hypertension was evaluated.
Rats (Wistar strain, male, 5 weeks old; JAPAN SLC, Inc.) with pulmonary hypertension induced by subcutaneous administration of an aqueous monocrotaline (Sigma Corporation) solution (60 mg/kg) to the back were provided as “group with induced pulmonary hypertension”. On the other hand, rats to which water for injection was similarly administered were provided as “normal group”.
To rats in the group with induced pulmonary hypertension, Example Compound 1 (3, 10 or 30 mg/kg) or a positive control compound tadalafil (10 mg/kg) was orally administered once per day for 24 days from the day of administration of monocrotaline. The Example Compound 1 and tadalafil were used as suspensions in 0.5% aqueous methyl cellulose solution supplemented with 0.5% Tween 80. The groups in which Example Compound 1 was administered at doses of 3, 10 and 30 mg/kg were provided as “Example Compound 1 (3 mg/kg)-administered group”, “Example Compound 1 (10 mg/kg)-administered group” and “Example Compound 1 (30 mg/kg)-administered group”, respectively. The group in which tadalafil was administered at a dose of 10 mg/kg was provided as “tadalafil-administered group”. In addition, for comparative control, 0.5% aqueous methyl cellulose solution supplemented with 0.5% Tween 80 was similarly administered to rats in the group with induced pulmonary hypertension, to provide “pulmonary hypertension control group”. Similarly, 0.5% aqueous methyl cellulose solution supplemented with 0.5% Tween 80 was administered in the normal group.
On the next day of the last administration of the test substance, the right ventricular systolic pressure, systemic systolic pressure and heart rate were measured. The measurement of the right ventricular systolic pressure and the systemic systolic pressure was carried out using an amplifier for blood pressure measurement (Nihon Kohden Corporation). The measurement of the heart rate was carried out using an instant heart rate meter unit (Nihon Kohden Corporation). On the same day, the body weight, lung wet weight, and wet weights of the right ventricle, left ventricle and septum were measured to determine the right ventricular weight ratio (right ventricular weight/(septum weight+left ventricular weight)) and the lung weight ratio (lung weight/body weight).
The lungs were stored by immersion in formalin after measurement of the wet weight. The formalin-fixed lungs were embedded in paraffin, and sections were prepared. Immunostained tissue samples were prepared using an anti-sEH antibody to study expression of sEH. Pathological specimens were prepared by Elastica-van Gieson staining to study thickening of pulmonary arteries. Immunostained tissue samples were prepared using an anti-PCNA antibody to study cell growth. The right ventricle was stored by immersion in formalin after measurement of the wet weight. The formalin-fixed right ventricle was embedded in paraffin, and sections were prepared. Pathological specimens were prepared by HE staining to study myocardial hypertrophy.
The removed lungs were homogenized in a buffer, and 14,15-EET and 14,15-DHET were extracted. The extracted 14,15-EET was hydrolyzed for conversion to 14,15-DHET, and the 14,15-DHET concentration was measured by the ELISA method. The increase in the concentration of 14,15-DHET due to the hydrolysis was regarded as the 14,15-EET concentration, and the 14,15-EET/14,15-DHET ratio was determined.
FIGS. 4 to 6 show the results on the right ventricular systolic pressure, right ventricular weight ratio and lung weight ratio determined on the next day of the last administration of the test compound. […]

[2] = test system: rat diabetic nephropathy model; experiment: Pharmacological effect in rat diabetic nephropathy model (streptozotocin); type: in vivo, rat (spontaneously hypertensive rat); details: mean±standard error, n=6
Method: Example Compound 1 was administered to a rat diabetic nephropathy model (International Journal of Molecular Medicine, 2007, vol. 19, p. 571-579; Hypertension, 1998, vol. 32, p. 778-785), and the therapeutic effect of the nipecotic acid derivative (I) or a pharmaceutically acceptable salt thereof on chronic renal disease with diabetic nephropathy was evaluated.
Rats (spontaneously hypertensive rat, male, 12 or 13 weeks old; Charles River Laboratories Japan, Inc.) with diabetic nephropathy induced by administration of an aqueous streptozotocin (Enzo Life Sciences, Inc.) solution (40 mg/kg) into the tail vein were provided as “group with induced diabetic nephropathy”. On the other hand, rats to which water for injection was similarly administered were provided as “untreated group”.
Six weeks after administration of streptozotocin, urine was collected using a metabolic cage at room temperature for 24 hours. The urinary albumin concentration in the collected urine was measured by the ELISA method. From the urinary albumin concentration and the urine weight, the amount of urinary albumin excretion was calculated.
To rats showing pathological conditions of diabetic nephropathy in the group with induced diabetic nephropathy, Example Compound 1 (10 mg/kg) or a positive control compound imidapril (2 mg/kg) was orally administered once per day for 20 days from Day 8 after the administration of streptozotocin. […]
After the last administration of the test substance on Day 27 after administration of streptozotocin, urine was collected using a metabolic cage at room temperature for 24 hours. The urinary albumin concentration in the collected urine was measured by the ELISA method. From the urinary albumin concentration and the urine weight, the amount of urinary albumin excretion was calculated. In addition, on Day 18 after administration of streptozotocin, the systemic systolic pressure was measured by the tail-cuff method. On Day 29 after administration of streptozotocin, blood was collected from the abdominal aorta of each rat, and the plasma glucose concentration was measured. […]

[3] = 3 mg/kg orally once per day for 24 days
[4] = 10 mg/kg orally once per day for 24 days from day of monocrotaline
[5] = 10 mg/kg orally once per day for 24 days
[6] = 30 mg/kg orally once per day for 24 days from day of monocrotaline
[7] = 30 mg/kg orally once per day for 24 days

In the case of `CCC(=O)NC1(C(=O)N2CCC[C@@H](C(=O)NCc3ccc(C#N)cc3OC(F)(F)F)C2)CCC1` [Example Compound 1, (R)—N-(4-cyano-2-(trifluoromethoxy)benzyl)-1-(1-propionamidocyclobutanecarbonyl)piperidine-3-carboxamide], the “heart rate vs pulmonary hypertension control group” value [1, 3] is reported as “not significantly different”, the “systemic systolic pressure vs pulmonary hypertension control group” value [1, 3] is reported as “not significantly different” and the “thickening of pulmonary arteries in lungs vs pulmonary hypertension control group” value ([1]; 3 mg/kg, Elastica-van Gieson staining) is reported as “less thickened pulmonary arteries”. For the same molecule, the “myocardial hypertrophy of the right ventricle vs pulmonary hypertension control group” value ([1]; 3 mg/kg, HE staining) was “less myocardial hypertrophy”, the “cell growth in lungs vs pulmonary hypertension control group” value ([1]; 3 mg/kg, anti-PCNA immunostaining) was “less cell growth” and the “lung weight ratio vs pulmonary hypertension control group” value [1, 4] was “statistically significantly lower”. For the same molecule, the “right ventricular systolic pressure vs pulmonary hypertension control group” value [1, 4] was “statistically significantly lower”, the “right ventricular weight ratio vs pulmonary hypertension control group” value (shortened to “right ventricular weight ratio”) [1, 4] was “statistically significantly lower” and the “heart rate vs pulmonary hypertension control group” value [1, 5] was “not significantly different”. The “systemic systolic pressure vs pulmonary hypertension control group” value [1, 5] was “not significantly different”, the “14,15-EET/14,15-DHET ratio in lungs vs pulmonary hypertension control group” value ([1]; 10 mg/kg, ELISA) was “higher” and the “right ventricular systolic pressure vs pulmonary hypertension control group” value [1, 6] was “statistically significantly lower”. For the same molecule, the “right ventricular weight ratio” value [1, 6] was “statistically significantly lower”, the “heart rate vs pulmonary hypertension control group” value [1, 7] was “not significantly different” and the “systemic systolic pressure vs pulmonary hypertension control group” value [1, 7] was “not significantly different”. For the same molecule, the “amount of urinary albumin excretion” value ([2]; Day 27 after streptozotocin, orally once per day for 20 days from Day 8 (Example Compound 1 10 mg/kg, imidapril 2 mg/kg)) was 5.41 ± 1.13 mg/day and the systemic systolic pressure ([2]; day 18 after streptozotocin, 10 mg/kg orally once per day, tail-cuff) was 199±6 mmHg.
With `CC(C)(NS(C)(=O)=O)C(=O)N1CCC[C@@H](C(=O)NCc2ccc(C#N)cc2OC(F)(F)F)C1` [Example Compound 2, (R)—N-(4-cyano-2-(trifluoromethoxy)benzyl)-1-(2-methyl-2-(methylsulfonamido)propanoyl)piperidine-3-carboxamide] the “lung weight ratio vs pulmonary hypertension control group” value [1, 4] was “lower”, the “right ventricular systolic pressure vs pulmonary hypertension control group” value [1, 4] was “statistically significantly lower” and the “right ventricular weight ratio” value [1, 4] was “statistically significantly lower”. The “heart rate vs pulmonary hypertension control group” value [1, 5] was “not significantly different” and the “systemic systolic pressure vs pulmonary hypertension control group” value [1, 5] was “not significantly different”.
